# Laboratory results as given in PubChem BioAssay AID248 (DTP/NCI, 2004).
# Several values for one entry are separate records, joined by “and”; a condition that tells them apart may be missing. Equal values may be shown once. Toxic doses and inconclusive results are not listed.
# System: L1210 leukemia ip in BDF1 mice, survival T/C
# Assay: NCI In Vivo Anticancer Drug Screen. Data for tumor model L1210 Leukemia (intraperitoneal) in B6D2F1 (BDF1) mice
# Conditions: higher = longer survival
# Method in brief: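 Tumor was transplanted into mice, which were then dosed with test compound or vehicle alone. Survival was recorded for each group, and the treated figure was expressed relative to the control figure.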
structure (smiles),measurement,setting,value
CC(CN1CC(=O)NC(=O)C1)N1CC(=O)NC(=O)C1 (stereo not drawn),T/C,"endpoint: mean survival time, dose: 1.6 mg/kg/injection, schedule: Q03HX016 (oral), vehicle: steriod suspending solution",122 % of control
same,T/C,"endpoint: mean survival time, dose: 1.6 mg/kg/injection, schedule: Q03HX024 (ip), vehicle: steriod suspending solution",156 % of control
same,T/C,"endpoint: mean survival time, dose: 1.6 mg/kg/injection, schedule: Q03HX024 (oral), vehicle: steriod suspending solution",124 % of control
same,T/C,"endpoint: mean survival time, dose: 6.25 mg/kg/injection, schedule: Q03HX008 (ip), vehicle: steriod suspending solution",118 % of control
same,T/C,"endpoint: mean survival time, dose: 12.5 mg/kg/injection, schedule: Q01DX009 (oral), vehicle: steriod suspending solution",156 % of control
same,T/C,"endpoint: mean survival time, dose: 12.5 mg/kg/injection, schedule: Q01DX009 (sc), vehicle: steriod suspending solution",117 % of control
same,T/C,"endpoint: mean survival time, dose: 12.5 mg/kg/injection, schedule: Q01DX Z (ip), vehicle: steriod suspending solution",154 % of control
same,T/C,"endpoint: mean survival time, dose: 12.5 mg/kg/injection, schedule: Q03HX024 (oral), vehicle: steriod suspending solution",101 % of control
same,T/C,"endpoint: mean survival time, dose: 12.5 mg/kg/injection, schedule: Q04DX003 (ip), vehicle: steriod suspending solution",109 % of control
same,T/C,"endpoint: mean survival time, dose: 18.0 mg/kg/injection, schedule: Q01DX009 (ip), vehicle: saline",151 % of control
same,T/C,"endpoint: mean survival time, dose: 25.0 mg/kg/injection, schedule: Q03HX008 (ip), vehicle: steriod suspending solution",155 % of control
same,T/C,"endpoint: mean survival time, dose: 25.0 mg/kg/injection, schedule: Q04DX003 (ip), vehicle: Klucel (hydroxypropylcellulose) (HPC)",109 % of control
same,T/C,"endpoint: mean survival time, dose: 25.0 mg/kg/injection, schedule: Q04DX003 (ip), vehicle: steriod suspending solution",103 % of control
same,T/C,"endpoint: mean survival time, dose: 25.0 mg/kg/injection, schedule: Q04DX003 (iv), vehicle: water",113 % of control and 122 % of control
same,T/C,"endpoint: mean survival time, dose: 25.0 mg/kg/injection, schedule: Q04DX003 (oral), vehicle: steriod suspending solution",115 % of control
same,T/C,"endpoint: mean survival time, dose: 27.0 mg/kg/injection, schedule: Q01DX009 (ip), vehicle: saline",155 % of control
same,T/C,"endpoint: mean survival time, dose: 32.0 mg/kg/injection, schedule: Q04DX003 (ip), vehicle: saline with Tween-80",104 % of control
same,T/C,"endpoint: mean survival time, dose: 50.0 mg/kg/injection, schedule: Q01DX001 (ip), vehicle: saline",107 % of control
same,T/C,"endpoint: mean survival time, dose: 50.0 mg/kg/injection, schedule: Q01DX001 (ip), vehicle: steriod suspending solution",107 % of control
same,T/C,"endpoint: mean survival time, dose: 50.0 mg/kg/injection, schedule: Q01DX009 (oral), vehicle: steriod suspending solution",98 % of control and 121 % of control
same,T/C,"endpoint: mean survival time, dose: 50.0 mg/kg/injection, schedule: Q03HX024 (ip), vehicle: steriod suspending solution",104 % of control
same,T/C,"endpoint: mean survival time, dose: 50.0 mg/kg/injection, schedule: Q04DX003 (ip), vehicle: steriod suspending solution",100 % of control
same,T/C,"endpoint: mean survival time, dose: 50.0 mg/kg/injection, schedule: Q04DX003 (iv), vehicle: water",112 % of control and 115 % of control and 122 % of control
same,T/C,"endpoint: mean survival time, dose: 50.0 mg/kg/injection, schedule: Q06HX012 (oral), vehicle: steriod suspending solution",101 % of control
same,T/C,"endpoint: mean survival time, dose: 60.0 mg/kg/injection, schedule: Q01DX009 (ip), vehicle: saline with Tween-80",156 % of control
same,T/C,"endpoint: mean survival time, dose: 64.0 mg/kg/injection, schedule: Q04DX003 (ip), vehicle: saline with Tween-80",124 % of control
same,T/C,"endpoint: mean survival time, dose: 100.0 mg/kg/injection, schedule: Q01DX001 (ip), vehicle: saline",113 % of control
same,T/C,"endpoint: mean survival time, dose: 100.0 mg/kg/injection, schedule: Q01DX001 (oral), vehicle: steriod suspending solution",111 % of control
same,T/C,"endpoint: mean survival time, dose: 100.0 mg/kg/injection, schedule: Q01DX009 (oral), vehicle: steriod suspending solution",95 % of control and 103 % of control
same,T/C,"endpoint: mean survival time, dose: 100.0 mg/kg/injection, schedule: Q01DX Z (ip), vehicle: steriod suspending solution",113 % of control
same,T/C,"endpoint: mean survival time, dose: 100.0 mg/kg/injection, schedule: Q04DX003 (ip), vehicle: steriod suspending solution",151 % of control
same,T/C,"endpoint: mean survival time, dose: 100.0 mg/kg/injection, schedule: Q04DX003 (iv), vehicle: water",112 % of control and 115 % of control and 119 % of control
same,T/C,"endpoint: mean survival time, dose: 100.0 mg/kg/injection, schedule: Q08DX002 (ip), vehicle: steriod suspending solution",151 % of control
same,T/C,"endpoint: mean survival time, dose: 100.0 mg/kg/injection, schedule: Q08DX002 (oral), vehicle: steriod suspending solution",122 % of control
same,T/C,"endpoint: mean survival time, dose: 120.0 mg/kg/injection, schedule: Q01DX009 (ip), vehicle: saline with Tween-80",118 % of control
same,T/C,"endpoint: mean survival time, dose: 128.0 mg/kg/injection, schedule: Q01DX009 (ip), vehicle: saline with Tween-80",112 % of control
same,T/C,"endpoint: mean survival time, dose: 128.0 mg/kg/injection, schedule: Q04DX003 (oral), vehicle: saline with Tween-80",155 % of control
same,T/C,"endpoint: mean survival time, dose: 200.0 mg/kg/injection, schedule: Q01DX001 (ip), vehicle: saline",120 % of control
same,T/C,"endpoint: mean survival time, dose: 200.0 mg/kg/injection, schedule: Q01DX001 (oral), vehicle: steriod suspending solution",107 % of control
same,T/C,"endpoint: mean survival time, dose: 200.0 mg/kg/injection, schedule: Q04DX003 (oral), vehicle: steriod suspending solution",153 % of control
same,T/C,"endpoint: mean survival time, dose: 200.0 mg/kg/injection, schedule: Q08DX002 (oral), vehicle: steriod suspending solution",120 % of control
same,T/C,"endpoint: mean survival time, dose: 240.0 mg/kg/injection, schedule: Q01DX009 (ip), vehicle: saline with Tween-80",96 % of control
same,T/C,"endpoint: mean survival time, dose: 400.0 mg/kg/injection, schedule: Q01DX001 (oral), vehicle: steriod suspending solution",114 % of control
same,T/C,"endpoint: mean survival time, dose: 400.0 mg/kg/injection, schedule: Q04DX003 (oral), vehicle: steriod suspending solution",155 % of control
same,T/C,"endpoint: mean survival time, dose: 400.0 mg/kg/injection, schedule: Q08DX002 (ip), vehicle: steriod suspending solution",156 % of control
same,T/C,"endpoint: mean survival time, dose: 400.0 mg/kg/injection, schedule: Q08DX002 (oral), vehicle: steriod suspending solution",119 % of control
same,T/C,"endpoint: mean survival time, dose: 512.0 mg/kg/injection, schedule: Q04DX003 (ip), vehicle: saline with Tween-80",155 % of control
same,T/C,"endpoint: mean survival time, dose: 800.0 mg/kg/injection, schedule: Q04DX003 (ip), vehicle: Klucel (hydroxypropylcellulose) (HPC)",154 % of control
same,T/C,"endpoint: mean survival time, dose: 800.0 mg/kg/injection, schedule: Q04DX003 (ip), vehicle: water",120 % of control
same,T/C,"endpoint: mean survival time, dose: 800.0 mg/kg/injection, schedule: Q08DX002 (ip), vehicle: steriod suspending solution",111 % of control
same,T/C,"endpoint: mean survival time, dose: 1024.0 mg/kg/injection, schedule: Q04DX003 (oral), vehicle: saline with Tween-80",120 % of control
same,T/C,"endpoint: mean survival time, dose: 2048.0 mg/kg/injection, schedule: Q04DX003 (oral), vehicle: saline with Tween-80",94 % of control
same,T/C,"endpoint: median survival time, dose: 4.0 mg/kg/injection, schedule: Q03HX024 (ip), vehicle: Klucel (hydroxypropylcellulose) (HPC)",153 % of control
same,T/C,"endpoint: median survival time, dose: 8.0 mg/kg/injection, schedule: Q01DX009 (sc), vehicle: saline with Tween-80",120 % of control
same,T/C,"endpoint: median survival time, dose: 8.0 mg/kg/injection, schedule: Q03HX008 (ip), vehicle: saline with Tween-80",156 % of control
same,T/C,"endpoint: median survival time, dose: 12.5 mg/kg/injection, schedule: Q01DX009 (ip), vehicle: Klucel (hydroxypropylcellulose) (HPC)",150 % of control
same,T/C,"endpoint: median survival time, dose: 12.5 mg/kg/injection, schedule: Q03HX008 (ip), vehicle: Klucel (hydroxypropylcellulose) (HPC)",150 % of control
same,T/C,"endpoint: median survival time, dose: 16.0 mg/kg/injection, schedule: Q03HX008 (ip), vehicle: saline with Tween-80",154 % of control
same,T/C,"endpoint: median survival time, dose: 16.0 mg/kg/injection, schedule: Q03HX024 (ip), vehicle: saline with Tween-80",113 % of control
same,T/C,"endpoint: median survival time, dose: 25.0 mg/kg/injection, schedule: Q01DX009 (ip), vehicle: Klucel (hydroxypropylcellulose) (HPC)",150 % of control
same,T/C,"endpoint: median survival time, dose: 25.0 mg/kg/injection, schedule: Q03HX008 (ip), vehicle: Klucel (hydroxypropylcellulose) (HPC)",151 % of control and 155 % of control
same,T/C,"endpoint: median survival time, dose: 45.0 mg/kg/injection, schedule: Q03HX024 (ip), vehicle: Klucel (hydroxypropylcellulose) (HPC)",155 % of control
same,T/C,"endpoint: median survival time, dose: 50.0 mg/kg/injection, schedule: Q03HX008 (ip), vehicle: Klucel (hydroxypropylcellulose) (HPC)",115 % of control
same,T/C,"endpoint: median survival time, dose: 64.0 mg/kg/injection, schedule: Q01DX001 (ip), vehicle: saline with Tween-80",105 % of control
same,T/C,"endpoint: median survival time, dose: 64.0 mg/kg/injection, schedule: Q03HX008 (ip), vehicle: saline with Tween-80",156 % of control
same,T/C,"endpoint: median survival time, dose: 64.0 mg/kg/injection, schedule: Q03HX016 (ip), vehicle: saline with Tween-80",96 % of control
same,T/C,"endpoint: median survival time, dose: 64.0 mg/kg/injection, schedule: Q08DX002 (ip), vehicle: saline with Tween-80",109 % of control
same,T/C,"endpoint: median survival time, dose: 100.0 mg/kg/injection, schedule: Q01DX001 (ip), vehicle: other",122 % of control
same,T/C,"endpoint: median survival time, dose: 100.0 mg/kg/injection, schedule: Q01DX001 (ip), vehicle: steriod suspending solution",122 % of control
same,T/C,"endpoint: median survival time, dose: 100.0 mg/kg/injection, schedule: Q04DX003 (ip), vehicle: other",122 % of control
same,T/C,"endpoint: median survival time, dose: 108.0 mg/kg/injection, schedule: Q01DX001 (ip), vehicle: Klucel (hydroxypropylcellulose) (HPC)",114 % of control and 120 % of control
same,T/C,"endpoint: median survival time, dose: 128.0 mg/kg/injection, schedule: Q01DX001 (ip), vehicle: saline with Tween-80",109 % of control
same,T/C,"endpoint: median survival time, dose: 128.0 mg/kg/injection, schedule: Q01DX009 (sc), vehicle: saline with Tween-80",107 % of control
same,T/C,"endpoint: median survival time, dose: 128.0 mg/kg/injection, schedule: Q04DX003 (ip), vehicle: saline with Tween-80",124 % of control
same,T/C,"endpoint: median survival time, dose: 128.0 mg/kg/injection, schedule: Q08DX002 (ip), vehicle: saline with Tween-80",119 % of control
same,T/C,"endpoint: median survival time, dose: 168.0 mg/kg/injection, schedule: Q04DX003 (ip), vehicle: Klucel (hydroxypropylcellulose) (HPC)",152 % of control and 155 % of control
same,T/C,"endpoint: median survival time, dose: 180.0 mg/kg/injection, schedule: Q01DX001 (ip), vehicle: Klucel (hydroxypropylcellulose) (HPC)",118 % of control and 120 % of control
same,T/C,"endpoint: median survival time, dose: 200.0 mg/kg/injection, schedule: Q01DX001 (ip), vehicle: steriod suspending solution",155 % of control
same,T/C,"endpoint: median survival time, dose: 256.0 mg/kg/injection, schedule: Q01DX001 (ip), vehicle: saline with Tween-80",113 % of control
same,T/C,"endpoint: median survival time, dose: 400.0 mg/kg/injection, schedule: Q01DX001 (ip), vehicle: steriod suspending solution",150 % of control and 155 % of control
same,T/C,"endpoint: median survival time, dose: 400.0 mg/kg/injection, schedule: Q04DX003 (ip), vehicle: other",94 % of control
same,T/C,"endpoint: median survival time, dose: 512.0 mg/kg/injection, schedule: Q08DX002 (ip), vehicle: saline with Tween-80",150 % of control
same,T/C,"endpoint: median survival time, dose: 700.0 mg/kg/injection, schedule: Q04DX003 (ip), vehicle: Klucel (hydroxypropylcellulose) (HPC)",105 % of control and 106 % of control
